Values joined by “and” are separate entries in the source; they are usually repeats but may differ in a detail not shown here. Equal entries are not always repeated. Structures can show the parent of a compound that is named as a salt. Where two headings read alike, the source gives them in different places.
Assays:
[1] = tested on: liver cancer cells (HepG2); settings: for Increased tumor volume, Mean / Volume, Mean / Increased tumor volume / L (longest diameter of the tumor) / Volume / W (shortest diameter of the tumor) / Weight: intraperitoneal daily; for Increased tumor volume, Mean / Volume, Mean: mean of 3 mice; for Increased tumor volume / L (longest diameter of the tumor) / Volume / W (shortest diameter of the tumor) / Weight: mice A, B, C
Procedure: This experiment was performed with female BALB/cAnN.Cg-Foxn1nu/CrlNarl mice with a weight of around 21±1 gas samples. After subcutaneous injection of liver cancer cells (HepG2), the mice were randomly divided into three groups based on the test drug, i.e., normal control group, low dosage group (100 mg/kg/day) and high dosage group (200 mg/kg/day). After the tumor was grown to be over 100 mm^3, the mice were treated with the drug via intraperitoneal injection daily. The tumor size was measured two times per week. The formula for determining the tumor size was as follows: (L×W^2)/2, in which L represents the longest diameter of the tumor and W represents the shortest diameter of the tumor.

[2] = tested on: various cancer cells; settings: Table 18, FIG. 1
Procedure: These cells were seeded at an amount of 2×10^6 cells, and then added with the culture medium for cultivating the cells to a volume of 10 mL, followed by cultivation for 2 to 3 days. After counting the cell number, these cells were respectively plated in a 96-well plate, in which each well has a fixed cell number of 3000 and a volume of 100 μL.
After removing the culture medium in the 96-well plate, each well was added with 100 μL of 10 μM commercial drug and then placed for 72 hours. Thereafter, each well was further added with 100 μL of a diluted WST-1 solution (the dilution ratio for the culture medium: WST-1 stock solution (wt/wt) is 9:1).

[3] = High dosage (200 mg/kg/day), Fifth measurement
[4] = High dosage (200 mg/kg/day), First measurement
[5] = High dosage (200 mg/kg/day), First measurement, hydrochloride
[6] = High dosage (200 mg/kg/day), Fourth measurement
[7] = High dosage (200 mg/kg/day), Second measurement
[8] = High dosage (200 mg/kg/day), Second measurement, hydrochloride
[9] = High dosage (200 mg/kg/day), Third measurement
[10] = Low dosage (100 mg/kg/day), Fifth measurement
[11] = Low dosage (100 mg/kg/day), Fifth measurement, hydrochloride
[12] = Low dosage (100 mg/kg/day), First measurement
[13] = Low dosage (100 mg/kg/day), First measurement, hydrochloride
[14] = Low dosage (100 mg/kg/day), Fourth measurement
[15] = Low dosage (100 mg/kg/day), Fourth measurement, hydrochloride
[16] = Low dosage (100 mg/kg/day), Second measurement
[17] = Low dosage (100 mg/kg/day), Second measurement, hydrochloride
[18] = Low dosage (100 mg/kg/day), Third measurement
[19] = Low dosage (100 mg/kg/day), Third measurement, hydrochloride

CNCC[C@H](Oc1cccc2ccccc12)c1cccs1 [duloxetine HCl, Duloxetine hydrochloride]
Increased tumor volume, Mean [1, 3]: 0 mm^3
Volume, Mean [1, 3]: 0 mm^3
Increased tumor volume [1, 3]: 0 mm^3
L (longest diameter of the tumor) [1, 3]: 0 mm
Volume [1, 3]: 0 mm^3
W (shortest diameter of the tumor) [1, 3]: 0 mm
Weight [1, 3]: 20 g
Weight ([1]; High dosage (200 mg/kg/day), Fifth measurement, hydrochloride): 21 g
Increased tumor volume, Mean [1, 4]: 78.5 mm^3
Volume, Mean [1, 4]: 78.5 mm^3
Weight [1, 4]: 20 g
L (longest diameter of the tumor) [1, 5]: 6 mm and 8 mm and 7 mm
W (shortest diameter of the tumor) [1, 5]: 4 mm and 5 mm
Weight [1, 5]: 19 g and 18.5 g
Increased tumor volume, Mean [1, 6]: −13.3333 mm^3
Volume, Mean [1, 6]: 0 mm^3
L (longest diameter of the tumor) [1, 6]: 0 mm
Volume [1, 6]: 0 mm^3
W (shortest diameter of the tumor) [1, 6]: 0 mm
Weight [1, 6]: 20 g
Weight ([1]; High dosage (200 mg/kg/day), Fourth measurement, hydrochloride): 21 g
Increased tumor volume, Mean [1, 7]: −25.8333 mm^3
Volume, Mean [1, 7]: 52.67 mm^3
Weight [1, 7]: 20 g
L (longest diameter of the tumor) [1, 8]: 6 mm and 5 mm and 7 mm
W (shortest diameter of the tumor) [1, 8]: 4 mm and 3 mm and 5 mm
Weight [1, 8]: 23 g
Increased tumor volume, Mean [1, 9]: −39.3333 mm^3
Volume, Mean [1, 9]: 13.33 mm^3
Weight ([1]; High dosage (200 mg/kg/day), Third measurement, hydrochloride): 19 g and 18.5 g
Increased tumor volume, Mean [1, 10]: −8.333 mm^3
Volume, Mean [1, 10]: 63.33 mm^3
Weight [1, 10]: 20 g
L (longest diameter of the tumor) [1, 11]: 6 mm and 4 mm
W (shortest diameter of the tumor) [1, 11]: 6 mm and 5 mm and 4 mm
Weight [1, 11]: 22 g
Increased tumor volume, Mean [1, 12]: 113.1667 mm^3
Volume, Mean [1, 12]: 113.1667 mm^3
Increased tumor volume [1, 13]: 87.5 mm^3 and 144 mm^3 and 108 mm^3
L (longest diameter of the tumor) [1, 13]: 7 mm and 8 mm and 6 mm
Volume [1, 13]: 87.5 mm^3 and 144 mm^3 and 108 mm^3
W (shortest diameter of the tumor) [1, 13]: 5 mm and 6 mm
Weight [1, 13]: 19 g and 18 g
Increased tumor volume, Mean [1, 14]: −18.1667 mm^3
Volume, Mean [1, 14]: 71.67 mm^3
Weight [1, 14]: 20 g
L (longest diameter of the tumor) [1, 15]: 6 mm and 4 mm
W (shortest diameter of the tumor) [1, 15]: 6 mm and 4 mm and 5 mm
Weight [1, 15]: 22 g
Increased tumor volume, Mean [1, 16]: −4.167 mm^3
Volume, Mean [1, 16]: 109 mm^3
Weight [1, 16]: 20 g
L (longest diameter of the tumor) [1, 17]: 6 mm and 7 mm
Volume [1, 17]: 75 mm^3 and 126 mm^3
W (shortest diameter of the tumor) [1, 17]: 5 mm and 6 mm
Weight [1, 17]: 19 g and 21 g
Increased tumor volume, Mean [1, 18]: −19.1667 mm^3
Volume, Mean [1, 18]: 89.83 mm^3
L (longest diameter of the tumor) [1, 18]: 7 mm
W (shortest diameter of the tumor) [1, 19]: 6 mm and 4 mm and 5 mm
Weight [1, 19]: 20.5 g and 23.5 g and 19 g
inhibitory effect against the tumors ([1]; both low dosage and high dosage, FIG. 2): great inhibitory effect
weight loss during the experiments ([1]; each group of mice, high or low dosage): no obvious weight loss
health condition / death during the treatment ([1]; either high or low dosage): not die during the treatment
effect on tumor volume, high versus low dosage ([1]; high dosage, FIG. 3): better effect
increase of tumor volume ([1]; low dosage and high dosage, FIG. 3): effectively inhibit the increase of tumor volume
inhibitory effect against various cancers [2]: significant inhibitory effect
